What was measured:
rat 11β-HSD1 = system: rat 11β-HSD1; set-up: method as in Lin et al., 2013; conditions: ref Lin et al., 2013; cited from earlier work
human 11β-HSD1 = system: human 11β-HSD1; set-up: method as in Lin et al., 2013; conditions: ref Lin et al., 2013; cited from earlier work

SMILES | melting point [°C] | IC50 (rat 11β-HSD1) [nM] | IC50 (human 11β-HSD1) [nM]
O=C1/C(=C/c2ccc(Cl)cc2Cl)CC/C1=C\c1ccc(Cl)cc1Cl [WZS01, (2E,5E)-2,5-bis(2,4-dichlorobenzylidene) Cyclopentanone] | 209.4 to 212 | – | –
O=C1/C(=C/c2cccc(Cl)c2Cl)CC/C1=C\c1cccc(Cl)c1Cl [WZS04, (2E,5E)-2,5-bis(2,3-dichlorobenzylidene) Cyclopentanone] | 204.6 to 206.8 | – | –
COc1cc(OC)c(/C=C2\CC/C(=C\c3c(OC)cc(OC)cc3OC)C2=O)c(OC)c1 [WZS05, (2E,5E)-2,5-bis(2,4,6-Trimethoxybenzylidene) Cyclopentanone] | 195 to 197.8 | – | –
O=C1/C(=C/c2cc(F)ccc2F)CC/C1=C\c1cc(F)ccc1F [WZS07, (2E,5E)-2,5-bis(2,5-difluorobenzylidene) Cyclopentanone] | 208.1 to 209.8 | – | –
Cc1ccc(/C=C2\CC/C(=C\c3ccc(C)cc3C)C2=O)c(C)c1 [WZS03, (2E,5E)-2,5-bis(2,4-dimethylbenzylidene) Cyclopentanone] | 128.8 to 131.8 | – | –
O=C1C(=Cc2ccccc2Br)CCC1=Cc1ccccc1Br [5-bis-(2-bromo-benzylidene) cyclopentanone] | – | 148 | 346

— PMC8072159, “5-Bis-(2,6-difluoro-benzylidene) Cyclopentanone Acts as a Selective 11β-Hydroxysteroid Dehydrogenase one Inhibitor to Treat Diet-Induced Nonalcoholic Fatty Liver Disease in Mice” (Frontiers in Pharmacology, 2021)
